Laboratory results taken from patent US10570180B2, “Anti-bacterial agents and their use in therapy” (priority 2015, dated 2020).
In brackets after ≈: the same amount, converted by molar mass. Ends that are not written are not given here.

Experiments:
E. coli BL21 (ripl) = assay: Overexpression of APIM peptides in E. coli, growth; format: cell-based; conditions: induction with 1 mM IPTG, no cell-penetrating peptide; FIG. 9, 10
From the text: In order to verify further that the anti-microbial effect of the APIM peptides arise from the APIM sequence, peptides containing only the APIM sequence (i.e. without a cell-penetrating peptide) were over-expressed in E. coli using the expression vector pET28. The APIM peptide was expressed alone or as part of a fusion protein with EYFP. Expression of EYFP alone was used as a control.
The expression vectors containing the respective peptides were transfected into the bacterial strain E. coli BL21 (ripl). Single colonies, 4-6 of each strain, were inoculated in […] LB media (+Km/Clm) in 96 wells plates, and incubated at 37° C. Overnight cultures were diluted 1:100 and grown for 1 h before induction with 1 mM IPTG (initiating peptide expression). OD was measured every hour.
In order to verify that the extended APIM peptides have an anti-bacterial effect, peptides containing only the “extended” APIM sequence (i.e. without a cell-penetrating peptide) were over-expressed in E. coli using the expression vector pET28, using the method described in Example 7. […] The bacterial strain without a plasmid was used as a further control.

[1] = tested on: Staphylococcus aureus MRSA 1040s; assay: microbe, parasite or virus in culture; format: cell-based; conditions: for MIC of Erythromycin (Relative values): concentration of APIM peptide 15 μg/ml, MRSA 1040s
Experimental: (§1) ATX-101 was dissolved in Mueller-Hinton broth to 1.25 times of the desired assay concentration. Antibiotics were dissolved in Mueller-Hinton broth and Mueller-Hinton broth with ATX-101 at a concentration of 1.25 times the highest desired assay concentrations. Antibiotics were pharmaceutical grade purchased from Sigma-Aldrich.
(§2) Two-fold serial dilutions of antibiotics were made in Mueller-Hinton with different concentrations of ATX-101, and the solutions were placed in four parallel wells is Nunc 384-well micro plates (30 μl per well in Nunc 242757 microplates). A group of 8 wells with no addition of antibiotics for each ATX-101 concentration was included on each micro plate as a growth reference.
(§3) At the day of analysis, overnight TSB cultures inoculated from freeze stocks (6 ml in 50 ml tube tilted to 45-degrees angle, 200 rpm, 2.5 cm amplitude, 37° C.) were diluted in TSB until the OD800 was 0.10, and further diluted 1:40 in Mueller-Hinton broth. Each well in the 384-well assay plates was inoculated with 7.5 μl of the diluted culture, giving the same dilution of the culture in the assay cultures. The microplates were placed in plastic bags and incubated without shaking at 37° C. The optical density at 600 nm in the microwells was measured after approximately 19 hours of incubation, and the relative growth yield was calculated based on the growth in the reference groups. The MIC value was set to the highest concentration giving less than 30% growth in all 4 parallel wells within the sample groups. The microplates were further incubated for 6 hours, and optical density in the cultures was measured once more for confirmation of the estimated MIC-values.
as §1, with “The APIM peptide was” for “ATX-101 was”, “with APIM” for “with ATX-101”
as §2, with “APIM,” for “ATX-101,”, “in” for “is”, “APIM” for “ATX-101”, “as” for “as a”
as §3, with “inoculated” for “inoculated from”, “OD600” for “OD800”, “culture.” for “culture, giving the same dilution of the culture in the assay cultures.”, “yield in each well” for “yield”
In view of the anti-bacterial effect of ATX-101 on strains of MRSA, the MIC for a variety of APIM variants was determined using Staphylococcus aureus MRSA 1040s. […] A cell penetrating peptide (SEQ ID NO: 337) present in all of the APIM peptides, was used as a negative control.
Next, the effect of APIM peptides on the MIC of antibiotics was determined using Staphylococcus aureus MRSA 1040s.
(§4) The MICS for various APIM peptides were determined for various bacteria, as described above.

[2] = target: β-clamp protein from E. coli (Escherichia coli, UniProt P0A988); assay: Microscale thermophoresis (MST); format: binding; conditions: no data could be obtained
Experimental: Microscale thermophoresis (MST) was used to determine the dissociation constant for various APIM containing peptides.
The β-clamp protein from E. coli was labeled with a fluorescent molecule. Concentration of PCNA was kept constant, whereas dilutions of each APIM containing peptide were prepared (1:1). In a mix of protein and peptide, the signal was recorded in all capillaries with varying concentrations of the unlabeled peptide, and any change of thermophoretic properties was observed as a change in fluorescence intensity.

E. faecium TO-12 = format: cell-based
Experimental: as §1, §2, §3, §4

[3] = tested on: Staphylococcus aureus NCTC 6571; format: cell-based; conditions: NCTC 6571
Experimental: as §1, §2, §3, §4

[4] = tested on: E. faecium CCUG 37832 (TO-3); format: cell-based, Enterococcus faecium; conditions: CCUG 37832
Experimental: as §1, §2, §3
Accordingly, concentrations of 8 μg/ml and 16 μg/ml of ATX-101 were combined with various antibiotics selected from; 2,4-Diamin, S. methizol, S. methoxa, S. dimetho, Surfaceta, Trimeth, Flumeq, Levoflox, Pruliflox, Metronid and Nitrofur.
as §4

bacteria = assay: MIC of other APIM peptides on bacteria; format: cell-based; conditions: Example 2
A. baumanii = format: cell-based
Experimental: as §1, §2, §3, §4

Sequence of β-clamp protein from E. coli (P0A988 whole entry): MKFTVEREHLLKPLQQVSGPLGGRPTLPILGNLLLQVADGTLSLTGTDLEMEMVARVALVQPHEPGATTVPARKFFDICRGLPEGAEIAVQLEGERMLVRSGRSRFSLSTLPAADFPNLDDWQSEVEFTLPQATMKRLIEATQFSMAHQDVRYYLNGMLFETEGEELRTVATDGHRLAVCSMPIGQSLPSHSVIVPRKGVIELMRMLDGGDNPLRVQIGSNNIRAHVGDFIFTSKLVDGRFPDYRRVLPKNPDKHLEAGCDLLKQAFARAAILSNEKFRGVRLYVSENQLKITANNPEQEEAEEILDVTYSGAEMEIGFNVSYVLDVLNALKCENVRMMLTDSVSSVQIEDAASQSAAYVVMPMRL

Compound | bacterial growth on overexpression of APIM peptide (OD) (E. coli BL21 (ripl)) | MIC ([1]; 1040s) [µg/mL] | interaction with the β-clamp protein [2] | MIC (E. faecium TO-12) [µM] | MIC [3] [µM] | MIC of Erythromycin (Relative values) [1] | MIC [4] [µM] | MIC compared with ATX-101 (bacteria) | MIC (A. baumanii) [µM]
RWLTK (APIM variant) [SEQ ID NO: 1293] | particularly effective |  |  |  |  |  |  |  | 
N=C(N)NCCC[C@H](NC(=O)[C@H](CCCNC(=N)N)NC(=O)[C@H](CCCNC(=N)N)NC(=O)[C@H](CCCNC(=N)N)NC(=O)[C@H](CCCNC(=N)N)NC(=O)[C@H](CCCNC(=N)N)NC(=O)[C@H](CCCNC(=N)N)NC(=O)[C@H](CCCNC(=N)N)NC(=O)[C@H](CCCNC(=N)N)NC(=O)[C@H](CCCNC(=N)N)NC(=O)[C@@H](N)CCCNC(=N)N)C(=O)O [R11, RRRRRRRRRRR, reference compound] |  | 118 (≈ 68 µM) | does not interact with the β-clamp protein |  |  |  |  |  | 
MDRWSVKWKKKRKIRRRRRRRRRRR [SEQ ID NO: 1298] |  |  |  | 37.9 | 37.9 | 100 | 7.5 | lower MICs than ATX-101 | 
CC[C@H](C)[C@H](NC(=O)[C@H](CCCCN)NC(=O)[C@H](CCCNC(=N)N)NC(=O)[C@H](CCCCN)NC(=O)[C@H](CCCCN)NC(=O)[C@H](CCCCN)NC(=O)[C@H](Cc1c[nH]c2ccccc12)NC(=O)[C@@H]1CCCN1C(=O)[C@@H](NC(=O)[C@H](CC(C)C)NC(=O)[C@H](Cc1c[nH]c2ccccc12)NC(=O)[C@H](CCCNC(=N)N)NC(=O)[C@H](CC(=O)O)NC(=O)[C@@H](N)CCSC)C(C)C)C(=O)N[C@@H](CCCNC(=N)N)C(=O)N[C@@H](CCCNC(=N)N)C(=O)N[C@@H](CCCNC(=N)N)C(=O)N[C@@H](CCCNC(=N)N)C(=O)N[C@@H](CCCNC(=N)N)C(=O)N[C@@H](CCCNC(=N)N)C(=O)N[C@@H](CCCNC(=N)N)C(=O)N[C@@H](CCCNC(=N)N)C(=O)N[C@@H](CCCNC(=N)N)C(=O)N[C@@H](CCCNC(=N)N)C(=O)N[C@@H](CCCNC(=N)N)C(=O)O [SEQ ID NO: 1303] |  |  |  | 25.3 (≈ 91.1 µg/mL) | 37.9 (≈ 137 µg/mL) | 100 | 7.5 (≈ 27 µg/mL) |  | 25.3 (≈ 91.1 µg/mL)
